Test results as given in ChEMBL document CHEMBL5252661 (ACS Med Chem Lett, 2023).
The source made the active and inactive calls. The calls are words filed in the database; no cut-off is given here.

Columns and labels:
[1] = biological target: T1, Peroxisome proliferator-activated receptor alpha (Homo sapiens) (UniProt Q07869); assay: Binding affinity to PPARalpha (unknown origin) upto 10 uM by TR-FRET-based competitive binding assay
T1 sequence (whole entry): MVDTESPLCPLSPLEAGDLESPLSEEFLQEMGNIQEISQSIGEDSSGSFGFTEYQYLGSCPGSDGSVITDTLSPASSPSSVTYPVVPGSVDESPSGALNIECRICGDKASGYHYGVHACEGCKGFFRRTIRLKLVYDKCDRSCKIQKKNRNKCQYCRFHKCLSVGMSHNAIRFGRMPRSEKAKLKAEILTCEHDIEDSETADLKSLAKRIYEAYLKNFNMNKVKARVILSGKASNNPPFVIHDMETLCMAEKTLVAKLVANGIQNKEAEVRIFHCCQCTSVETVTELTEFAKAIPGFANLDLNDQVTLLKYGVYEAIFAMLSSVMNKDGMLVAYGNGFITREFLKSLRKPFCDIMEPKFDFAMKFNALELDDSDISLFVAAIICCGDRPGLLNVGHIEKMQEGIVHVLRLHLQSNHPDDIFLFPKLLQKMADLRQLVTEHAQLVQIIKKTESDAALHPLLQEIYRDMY

Mesenchymal stem cells [2] = assay: Induction of adiponectin secretion in human BMMSC cells at 10 uM in presence of IDX induction medium by ELISA assay; type: functional, cell-based
[3] = biological target: T2, Peroxisome proliferator-activated receptor delta (Homo sapiens) (UniProt Q03181); assay: Binding affinity to PPARdelta (unknown origin) upto 10 uM by TR-FRET-based competitive binding assay
T2 sequence (whole entry): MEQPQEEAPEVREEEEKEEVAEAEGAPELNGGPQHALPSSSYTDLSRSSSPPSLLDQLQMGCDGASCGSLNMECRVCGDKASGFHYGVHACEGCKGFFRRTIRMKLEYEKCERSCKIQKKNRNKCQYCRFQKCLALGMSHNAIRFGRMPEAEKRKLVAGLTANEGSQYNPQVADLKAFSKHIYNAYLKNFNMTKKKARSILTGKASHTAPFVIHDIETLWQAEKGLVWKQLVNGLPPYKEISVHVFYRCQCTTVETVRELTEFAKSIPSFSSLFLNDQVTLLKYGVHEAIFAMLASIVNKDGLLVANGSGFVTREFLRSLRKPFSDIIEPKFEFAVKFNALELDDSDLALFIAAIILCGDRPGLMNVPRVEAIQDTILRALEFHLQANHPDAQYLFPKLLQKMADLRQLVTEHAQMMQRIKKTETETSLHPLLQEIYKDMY

Mesenchymal stem cells [4] = assay: Upregulation of PPARgamma mRNA expression in human BMMSC cells at 10 uM in presence of IDX induction medium by qRT-PCR assay; type: functional, cell-based
Mesenchymal stem cells [5] = assay: Potency index, ratio of EC50 for chrysin to EC50 for test compound for induction of adiponectin secretion in human BMMSC cells; type: functional
[6] = Induction of adiponectin secretion in human BMMSC cells in presence of IDX induction medium by ELISA assay; type: functional, cell-based; settings: Mesenchymal stem cells
Mesenchymal stem cells [7] = assay: Upregulation of ADIPOQ mRNA expression in human BMMSC cells at 10 uM in presence of IDX induction medium by qRT-PCR assay; type: functional, cell-based
Mesenchymal stem cells [8] = assay: Induction of adiponectin secretion in human BMMSC cells assessed as increase in size of lipid droplets at 10 uM in presence of IDX induction medium by Oil Red O staining based inverted microscopic analysis; type: functional, cell-based
[9] = biological target: T3, Peroxisome proliferator-activated receptor gamma (Homo sapiens, UniProt P37231); assay: Binding affinity to PPARgamma (unknown origin) by TR-FRET-based competitive binding assay
T3 sequence (P37231 whole entry): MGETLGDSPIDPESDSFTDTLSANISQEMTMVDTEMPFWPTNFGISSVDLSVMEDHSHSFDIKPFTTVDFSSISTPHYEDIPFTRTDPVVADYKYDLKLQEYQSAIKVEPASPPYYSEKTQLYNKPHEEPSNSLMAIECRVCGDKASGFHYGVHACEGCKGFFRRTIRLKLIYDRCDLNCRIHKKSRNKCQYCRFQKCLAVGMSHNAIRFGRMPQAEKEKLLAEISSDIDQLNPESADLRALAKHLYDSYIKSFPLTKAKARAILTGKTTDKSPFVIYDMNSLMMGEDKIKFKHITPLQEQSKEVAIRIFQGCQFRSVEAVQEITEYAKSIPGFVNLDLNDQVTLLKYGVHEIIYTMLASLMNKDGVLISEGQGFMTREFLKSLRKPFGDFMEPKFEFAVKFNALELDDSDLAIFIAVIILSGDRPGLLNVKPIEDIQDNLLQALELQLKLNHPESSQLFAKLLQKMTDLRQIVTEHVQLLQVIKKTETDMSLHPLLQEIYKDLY

[10] = Induction of adiponectin secretion in human BMMSC cells assessed as fold increase in adiponectin level at 10 uM in presence of IDX induction medium by ELISA assay; type: functional, Mesenchymal stem cells
Mesenchymal stem cells [11] = assay: Upregulation of FABP4 mRNA expression in human BMMSC cells at 10 uM in presence of IDX induction medium by qRT-PCR assay; type: functional, cell-based
Mesenchymal stem cells [12] = assay: Induction of adiponectin secretion in human BMMSC cells assessed as increase in number of lipid droplets at 10 uM in presence of IDX induction medium by Oil Red O staining based inverted microscopic analysis; type: functional, cell-based
[13] = biological target: T3, Peroxisome proliferator-activated receptor gamma; assay: Partial agonist activity at PPARgamma (unknown origin) by TR-FRET-based competitive binding assay
[14] = biological target: T3, Peroxisome proliferator-activated receptor gamma; assay: Agonist activity at PPARgamma LBD (unknown origin) assessed as increase in recruitment of coactivator RAP250 to PPARgamma LBD by TR-FRET-based nuclear receptor coactivator assay

Activity [1]	Activity [3]	EC50 [6] [µM]	Structure (SMILES)	Activity (Mesenchymal stem cells [2])	fold change (FC) [10]	also measured
inactive	inactive		C=CCOc1cc(O)cc2oc(-c3ccccc3)cc(=O)c12	Active		
inactive	inactive		O=c1cc(-c2ccccc2)oc2cc(OCc3ccccc3)cc(OCc3ccccc3)c12	Active		
inactive	inactive	4	CC(C)=CCOc1cc(OCC=C(C)C)c2c(=O)cc(-c3ccccc3)oc2c1	Active	4.8	Activity (Mesenchymal stem cells [4]): Active; Ratio EC50 (Mesenchymal stem cells [5]): 9; Activity (Mesenchymal stem cells [7]): Active; Activity (Mesenchymal stem cells [8]): Active; Ki [9]: 0.37 µM; Activity (Mesenchymal stem cells [11]): Active; Activity (Mesenchymal stem cells [12]): Active
inactive	inactive		O=c1cc(-c2ccccc2)oc2cc(O)cc(OCc3ccccc3)c12	Active		
inactive	inactive		COc1cc(OCc2ccccc2)cc2oc(-c3ccccc3)cc(=O)c12			
		4.7	CCCc1nc2c(C)cc(-c3nc4ccccc4n3C)cc2n1Cc1ccc(-c2ccccc2C(=O)O)cc1			Ki [13]: 1.08 µM
inactive	inactive	8.5	CC(C)=CCOc1cc(OCc2ccccc2)c2c(=O)cc(-c3ccccc3)oc2c1	Active	3.8	Activity (Mesenchymal stem cells [4]): Active; Ratio EC50 (Mesenchymal stem cells [5]): 9; EC50 [14]: 19.6 µM; Activity (Mesenchymal stem cells [7]): Active; Activity (Mesenchymal stem cells [8]): Active; Ki [9]: 0.55 µM; Activity (Mesenchymal stem cells [11]): Active; Activity (Mesenchymal stem cells [12]): Active
inactive	inactive		O=c1cc(-c2ccccc2)oc2cc(O)cc(OCc3ccc(F)cc3)c12	Active		
inactive	inactive		O=c1cc(-c2ccccc2)oc2cc(OCc3ccccc3)cc(O)c12	Active		
		0.5	CCc1ccc(CCOc2ccc(CC3SC(=O)NC3=O)cc2)nc1 (centres undefined) [PIOGLITAZONE]			
inactive	inactive		CC(C)=CCOc1cc(OCc2ccccc2)cc2oc(-c3ccccc3)cc(=O)c12	Active	3.3	
inactive	inactive		O=c1cc(-c2ccccc2)oc2cc(O)cc(OCc3ccc(Cl)cc3)c12	Active		
inactive	inactive	77.7	O=c1cc(-c2ccccc2)oc2cc(O)cc(O)c12 [CHRYSIN]	Active	2.3	Activity (Mesenchymal stem cells [8]): Active; Activity (Mesenchymal stem cells [12]): Active
